The source of these data is publication PMC8078842 (PLoS Neglected Tropical Diseases, 2021).

Where two headings read alike, the source gives them in different places.

For data set [1], the system named is Acid sensing ion channels (ASIC). Particulars: Potency 1b>3>2a>or = 1a; cited from earlier work.
Data set [2] deals with T1, Oxidase, MAO-A-Peripheral (Rattus norvegicus, UniProt P21396).
T1 sequence (P21396 1-526): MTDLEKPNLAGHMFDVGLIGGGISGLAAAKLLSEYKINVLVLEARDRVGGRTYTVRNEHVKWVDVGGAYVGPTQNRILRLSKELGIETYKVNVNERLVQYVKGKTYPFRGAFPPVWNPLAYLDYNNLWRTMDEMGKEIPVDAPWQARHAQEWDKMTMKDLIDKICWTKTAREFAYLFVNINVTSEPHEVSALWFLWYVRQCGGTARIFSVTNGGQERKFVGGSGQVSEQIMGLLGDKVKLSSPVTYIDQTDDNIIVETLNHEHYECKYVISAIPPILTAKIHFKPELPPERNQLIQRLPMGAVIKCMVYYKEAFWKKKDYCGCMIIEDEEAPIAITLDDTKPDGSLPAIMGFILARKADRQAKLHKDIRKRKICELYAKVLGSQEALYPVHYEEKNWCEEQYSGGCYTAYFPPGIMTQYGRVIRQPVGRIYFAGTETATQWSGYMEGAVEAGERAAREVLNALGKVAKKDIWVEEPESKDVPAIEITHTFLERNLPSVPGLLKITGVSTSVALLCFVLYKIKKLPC
Briefly: CNS side effect panel, [^14C] - 5HT. It counts as biochemical.

The test system of data set [3] is Nicotinic, Neuronal (a-BnTx insensitive). Briefly: CNS side effect panel, [^3H]Epibatidine. It counts as binding. Particulars: pentamidine 1.0E^-5 M.
Data set [4] relates to Rat NMDA receptor. Particulars: Rat brain membrane 3H-dizocilpine binding; cited from earlier work.
The subject of data set [5] is Melatonin, Non-selective. The data set is described as follows: CNS side effect panel, [^125I]-2-Iodomelatonin. The conditions noted are these: pentamidine 1.0E^-5 M. It counts as binding.
Data set [6] has as its system fibrinogen binding to GP11b/IIIa. Particulars: Inhibits fibrinogen binding to GP11b/IIIa; cited from earlier work.
Data set [7] has as its system Glutamate, Kainate Site (Ionotropic). The data set is described as follows: CNS side effect panel, [^3H]Kainic acid. It counts as binding. The conditions noted are these: pentamidine 1.0E^-5 M.
Data set [8] addresses Opioid, Non-selective. The data set is described as follows: CNS side effect panel, [^3H]Naloxone. It counts as binding.
The subject of data set [9] is P-gp (human MDR1). Briefly: in vitro. The conditions noted are these: dog.
The test system of data set [10] is Glutamate, NMDA Agonist Site (Ionotropic). The data set is described as follows: CNS side effect panel, [^3H]CGP 39653. It counts as binding. The conditions noted are these: pentamidine 1.0E^-5 M.
The nature of data set [11]: Drug release from dialysis cells (Ritger-Peppas model). It counts as physicochemical. The conditions noted are these: 10 mM PTI ± 1% Pluronic, water, 37°C. The method, then: The tube was immersed in a 200 mL closed Duran flask which was placed in a water bath at 37°C for the duration of the experiment.
The data was fitted to Ritger-Peppas model.
Where M and M∞ are the cumulative amounts of drug released at time t and at infinite time, respectively; k, the reaction constant, t the time, n, the diffusional exponent describing the type of regime type: n = 1, case II transport, n = 0.5, Fickian diffusion, 0.5<n<1 non-Fickian diffusion.

Data set [12] deals with Esterase, Acetylcholine. Briefly: CNS side effect panel, Acetylthiocholine. It counts as biochemical. The conditions noted are these: pentamidine 1.0E^-5 M.
In data set [13] the test system is GABA A, BDZ, alpha 1 site. Briefly: CNS side effect panel, [^3H]Flunitrazepam. It counts as binding. Particulars: pentamidine 1.0E^-5 M.
In data set [14] the test system is Adrenergic, Beta, Non-selective. The data set is described as follows: CNS side effect panel, [^3H]DHA. It counts as binding. Particulars: pentamidine 1.0E^-5 M.
In data set [15] the test system is Calmodulin. Particulars: Inhibits nNO synthase in vitro; cited from earlier work.
The target of data set [16] is T2, Dopamine, D2s (h) (Homo sapiens, UniProt P14416).
T2 construct: purchased Perkin-Elmer Science Discovery Systems (NovaScreen), customised CNS screening panel
T2 sequence (P14416 1-414 isoform P14416-2): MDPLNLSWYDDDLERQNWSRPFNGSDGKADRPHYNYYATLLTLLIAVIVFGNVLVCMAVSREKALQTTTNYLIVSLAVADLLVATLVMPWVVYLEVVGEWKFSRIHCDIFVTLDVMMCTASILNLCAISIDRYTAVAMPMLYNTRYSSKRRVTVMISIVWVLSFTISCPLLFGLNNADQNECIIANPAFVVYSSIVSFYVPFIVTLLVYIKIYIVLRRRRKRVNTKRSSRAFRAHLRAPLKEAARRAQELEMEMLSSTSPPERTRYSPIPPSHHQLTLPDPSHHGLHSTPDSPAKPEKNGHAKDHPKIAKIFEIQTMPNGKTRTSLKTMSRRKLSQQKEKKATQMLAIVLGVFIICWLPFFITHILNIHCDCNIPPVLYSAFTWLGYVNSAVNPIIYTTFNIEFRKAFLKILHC
The data set is described as follows: CNS side effect panel, [^3H]-Raclopride. It counts as binding. Particulars: pentamidine 1.0E^-5 M.

The subject of data set [17] is Glycine, Strychnine-sensitive. Briefly: CNS side effect panel, [^3H]Strychnine. It counts as binding. The conditions noted are these: pentamidine 1.0E^-5 M.
Data set [18] concerns Serotonin, Non-selective. The data set is described as follows: CNS side effect panel, [^3H] LSD. It counts as binding. The conditions noted are these: pentamidine 1.0E^-5 M.
In data set [19] the test system is Delta2glutamate receptor. The conditions noted are these: Voltage independent; cited from earlier work.
For data set [20], the system named is GABA A, Agonist Site. The data set is described as follows: CNS side effect panel, [^3H]GABA. It counts as binding. The conditions noted are these: pentamidine 1.0E^-5 M.
For data set [21], the target named is cloned hKir2.1 potassium channels (Homo sapiens, UniProt P63252). Briefly: cell-based.
cloned hKir2.1 potassium channels, sequence (P63252 whole entry): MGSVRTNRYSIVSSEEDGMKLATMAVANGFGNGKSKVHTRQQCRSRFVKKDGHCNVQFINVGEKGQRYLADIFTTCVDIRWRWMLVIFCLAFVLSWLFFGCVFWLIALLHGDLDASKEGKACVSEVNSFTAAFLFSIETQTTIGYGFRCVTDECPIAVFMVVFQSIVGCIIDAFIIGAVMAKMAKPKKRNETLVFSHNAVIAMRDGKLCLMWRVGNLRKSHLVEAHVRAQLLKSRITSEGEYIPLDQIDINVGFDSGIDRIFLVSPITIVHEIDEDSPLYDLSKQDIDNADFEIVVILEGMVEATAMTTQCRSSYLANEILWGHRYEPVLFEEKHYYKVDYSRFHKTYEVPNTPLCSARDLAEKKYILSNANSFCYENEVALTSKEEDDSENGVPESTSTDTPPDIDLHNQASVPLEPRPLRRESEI
Data set [22] concerns Potassium Channel, ATP-Sensitive. The data set is described as follows: CNS side effect panel, [^3H]Glibenclamide. It counts as binding. The conditions noted are these: pentamidine 1.0E^-5 M.
Data set [23] has as its target T3, Dopamine, D1 (h) (Homo sapiens, UniProt P21728).
T3 construct: purchased Perkin-Elmer Science Discovery Systems (NovaScreen), customised CNS screening panel
Briefly: CNS side effect panel, [^3H]-SCH23390. It counts as binding. Particulars: pentamidine 1.0E^-5 M.

Data set [24] relates to Potassium Channel, Ca2+ Act., VI. The data set is described as follows: CNS side effect panel, [^125I]Apamin. It counts as binding. The conditions noted are these: pentamidine 1.0E^-5 M.
For data set [25], the system named is Decarboxylase, Glutamic Acid. Briefly: CNS side effect panel, [^14C]Glutamic acid. It counts as biochemical. Particulars: pentamidine 1.0E^-5 M.
In data set [26] the test system is Serine proteases. Particulars: cited from earlier work.
For data set [27], the system named is PRL phosphatases. The conditions noted are these: Oncology target; cited from earlier work.
Data set [28] has as its system Adrenergic, Alpha 1, Non-selective. The data set is described as follows: CNS side effect panel, [^3H]7-MeOxy-Prazosin. It counts as binding. Particulars: pentamidine 1.0E^-5 M.
For data set [29] the following is noted: human, in vivo; cited from earlier work.
Data set [30] has as its system Trypanosoma brucei gambience. Particulars: cited from earlier work.
The nature of data set [31]: In vivo pharmacokinetic brain distribution with [^3H(G)]pentamidine. Also on record: species or system BALB/c mice. The conditions noted are these: 2 hours post-injection i.v., corrected for vascular/[^14C]sucrose space.

T3 sequence (P21728 whole entry): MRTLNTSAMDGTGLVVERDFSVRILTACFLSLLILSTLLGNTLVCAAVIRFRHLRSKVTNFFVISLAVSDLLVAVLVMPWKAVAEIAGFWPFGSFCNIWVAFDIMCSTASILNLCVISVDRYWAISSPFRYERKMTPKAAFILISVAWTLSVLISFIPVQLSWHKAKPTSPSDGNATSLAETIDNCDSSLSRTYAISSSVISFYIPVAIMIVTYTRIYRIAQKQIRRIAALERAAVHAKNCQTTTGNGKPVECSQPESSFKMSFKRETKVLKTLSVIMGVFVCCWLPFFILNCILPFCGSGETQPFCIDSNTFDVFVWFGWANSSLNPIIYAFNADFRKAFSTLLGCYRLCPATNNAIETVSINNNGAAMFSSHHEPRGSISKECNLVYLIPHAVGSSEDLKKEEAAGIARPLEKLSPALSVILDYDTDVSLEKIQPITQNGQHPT

Usually Ki stands for the dissociation constant of the complex between target and ligand, obtained from inhibition or displacement. Lower therefore signals a stronger hold on the target. A word on the Papp B→A: it is the apparent permeability from the basolateral to the apical side of a cell layer. What is called IC50 is the point on the concentration scale where inhibition reaches its midpoint. Consider `N=C(N)c1ccc(OCCCCCOc2ccc(C(=N)N)cc2)cc1` [Pentamidine, 1,5-bis-4ρ-amidinophenoxypentane], for which the Affinity was 38 µM in [1]; 1.8 µM in data set [4]; 1.1 µM in [6]; 30 µM in data set [15]; 5 µM in [19]; 4000 µM in data set [26]. Besides, in [27], the Affinity is 3 µM. The inhibitory constant (Ki) in data set [2] (Monoamine oxidase A, concentration-response) is 217 nM; in [8] (Opioid, concentration-response), 1410 nM. Besides, the “Percent Inhibition” value in data set [2] (pentamidine 1.0E^-5 M) is 89.42%; in [3], 10.87%; in [5] it was 23.45%; in data set [7] it was -13.63%; in [8] (pentamidine 1.0E^-5 M) it was 76.00%; in data set [10], 5.99%. Also, the “Percent Inhibition” value in data set [12] was 23.21%; in data set [13] it was 20.54%; in [14] it was 55.37%; in data set [16], 20.12%; in data set [17] it was -0.22%; in [18], 0.09%. For the same compound, the “Percent Inhibition” value in data set [20] is 31.10%; in [22], 6.07%; in data set [23] it was 27.48%; in [24], 2.07%; in data set [25] it was -1.41%; in data set [28], 100.77%. Besides, the basolateral-to-apical permeability (Papp B→A) at 1 h, 10 µM in data set [9] (MDCK-MDR1, pH 7.4, Papp B2A Replicate 1) came out at 0.336 ×10⁻⁶ cm/s; in data set [9] (MDCK-MDR1, pH 7.4, Papp B2A Replicate 2), 0.357 ×10⁻⁶ cm/s. This compound registered a Papp B→A at 1 h, 20 µM in data set [9] (MDCK-MDR1, pH 7.4, Papp basal to apical) of 0.418 ×10⁻⁶ cm/s. Besides, the “reaction constant (k, Ritger-Peppas)” value in data set [11] was roughly 0.3. For the same compound, the “reaction type (diffusional exponent n, Ritger-Peppas)” value in data set [11] is listed as “ca. 0.5”. Besides, the half-inhibitory concentration (IC50) is greater than 10000 nM in [21]; 10 nM in data set [30] (comparator for relative selectivity, read-out: Trypanocidal Activity (IC50), printed in column Ki); 14.7 ± 4.7 nM in data set [30] (read-out: IC50). Moreover, in data set [29], the “incidence of diabetes mellitus” value is recorded as “occasional but irreversible”. In addition, the incidence of hypoglycaemia in [29] is on record as 5-40%. Besides, the “Affinity, Trypanocidal” value in data set [30] (Time-dependent) was 0.01 µM. Moreover, the “trypanocidal activity in vitro” value in data set [30] is “around 10 nM”.
As for [^3H(G)]pentamidine, in data set [31], the “RTISSUE/PLASMA% (mean±SEM) Cerebellum” value was 204.02 (± 35.28) %, the “RTISSUE/PLASMA% (mean±SEM) Choroid plexus” value is reported as 24666.66 (± 4928) %, the “RTISSUE/PLASMA% (mean±SEM) Homogenate” value is given as 249.41 (± 35.59) % and the “RTISSUE/PLASMA% (mean±SEM) Left brain” value is reported as 152.29 (± 33.48) %. Besides, in data set [31], the “RTISSUE/PLASMA% (mean±SEM) Midbrain” value is on record as 181.18 (± 45.30) %, the “RTISSUE/PLASMA% (mean±SEM) Pellet” value is 479.72 (± 72.50) %, the “RTISSUE/PLASMA% (mean±SEM) Pituitary gland” value is recorded as 15053.41 (± 3598) % and the “RTISSUE/PLASMA% (mean±SEM) Right brain” value is given as 115.52 (± 12.46) %. The “RTISSUE/PLASMA% (mean±SEM) Supernatant” value in data set [31] is 123.35 (± 28.45) %.
